The subject of assay [1] is mice. The experiment in a line: Adenosine mediated bronchoconstriction and lung inflammation in an allergic mouse model. The format is in vivo. The arrangement: Total count: unit not given here. The settings on record: BAL fluid cells; 100 mg/kg oral. The procedure: Thienopyridines were proven as potent cytotoxic and anti-inflammatory agents in the previous experimental results. In cytotoxic MTT assay, activity of these molecules may be due to the involvement of adenosine receptors. Further, to find the bronchodilatory activity of these moieties and to find the involvement of adenosine receptors in their action, non-invasive and invasive adenosine mediated bronchoconstriction and lung inflammation in an allergic mouse model was performed.
Male mice, 6-8 weeks of age, free of specific pathogens were obtained from National Institute of Nutrition. The animals were maintained on a ragweed-free diet. All experimental protocols used in this study were under a protocol approved by animal ethical committee. Sensitization was performed according to the modified procedure described by Fan et al, 2002. Mice were sensitized on days 1 and 6 with i.p. injections of ragweed allergen (200 μg/200 μl of water for injection). Non-sensitized control animals received only water for injection with the same volumes. Ten days after sensitization, the mice were placed in plexiglas chamber and challenged with 0.5% ragweed or with 0.9% saline as a control for twenty minutes both in the morning and evening for three days. Then mice were divided into different groups consisting of six animals each. The groups including a control without sensitization; a sensitized group and a standard group along with groups of the test molecules were separated. Twenty-four hours after last challenge with ragweed, the mice were given an oral dose of test molecules and theophylline (100 mg/kg body weight) as acacia suspension. Two hours after administration of the oral dose, the mice were challenged with adenosine solution (24 mg/ml). The variation in respiration was recorded after anaesthetizing them with pentobarbitone sodium (0.1 ml 200 mg/ml ip) using kymograph. Then, mice were sacrificed and trachea was cannulated to collect the bronchoalveolar lavage fluid. This was performed by pumping 1 ml phosphate buffered saline into lungs through tracheal cannula and collecting the sample. Analysis of BAL fluid was performed to get the cellular differentials. The BAL fluid was centrifugated at 1500 rpm for six minutes at room temparature. After removing the supernatant, BAL cells were resuspended in 1 ml of phosphate buffered saline. Total cells were then counted manually in a hemocytometer chamber. A differential count of at least 300 cells was made according to the standard morphologic criteria and results were mentioned in table.

Assay [2] concerns the target T1, porcine pancreatic α-amylase (Sus scrofa, UniProt P00690).
T1 construct: α-amylase [EC 3.2.1.1) Type VI B: from porcine pancreas]; purchased Sigma Chemical Co., St Louis, Mo., USA; host or cells: porcine pancreas (natural source)
T1 sequence (P00690 16-511): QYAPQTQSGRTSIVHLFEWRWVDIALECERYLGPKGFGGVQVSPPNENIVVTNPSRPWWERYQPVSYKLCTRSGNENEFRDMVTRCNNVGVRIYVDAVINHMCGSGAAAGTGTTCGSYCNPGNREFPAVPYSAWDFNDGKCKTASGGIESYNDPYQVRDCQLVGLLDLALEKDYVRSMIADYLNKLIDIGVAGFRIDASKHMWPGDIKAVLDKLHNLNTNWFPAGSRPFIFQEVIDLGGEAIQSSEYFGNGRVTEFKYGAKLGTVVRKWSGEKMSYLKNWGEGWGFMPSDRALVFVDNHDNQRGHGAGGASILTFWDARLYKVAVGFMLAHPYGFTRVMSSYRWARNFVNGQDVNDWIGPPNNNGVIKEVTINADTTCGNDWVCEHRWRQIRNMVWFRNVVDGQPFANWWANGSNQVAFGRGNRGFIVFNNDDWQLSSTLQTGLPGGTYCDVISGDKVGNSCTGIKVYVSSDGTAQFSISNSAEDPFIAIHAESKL
In words: α-Amylase inhibition assay. The format is biochemical. Conditions: 10 mg per ml; for Maltose released: a/b marks the respective control (Control-1 2.147, Control-2 3.429); for inhibition at 10000 µg/mL (stock): 0.05 h, calculated from maltose released vs respective control. An excerpt:
Chemicals: α-Glucosidase [(EC 3.2.1.20) Type I: from bakers yeast], rat intestinal acetone powder (as a source of crude intestinal α-glucosidase), α-amylase [EC 3.2.1.1) Type VI B: from porcine pancreas], p-nitrophenyl α-D-glucopyranoside, 3,5-dinitro salicylic acid, soluble potato starch and 1-deoxyrojirimycine, were purchased from Sigma Chemical Co., St Louis, Mo., USA. Other chemicals of analytical grade were procured from indigenous manufacturers.
a-Amylase Inhibition Assay: The assay method was adopted from Ali et al. (2006) and modified accordingly to suite microplate reading. In brief, 40 μL of test samples (10 mg/mL DMSO) were reconstituted in 160 μL of 20 mM phosphate buffer (pH 6.9) containing 6.7 mM sodium chloride in 2 mL Eppendorf tubes and incubated with 200 μL of porcine pancreatic α-amylase) (4 U/mL prepared in ice cold distilled water) for 5 min. The reaction was started by the addition of 400-μL soluble potato starch solution (0.5% w/v in 20 mM phosphate buffer, pH 6.9). Exactly 3 min after incubation, 400 μL DNS color reagent (1.0 g of 3,5-dinitrosalicylic acid, 30 g of sodium potassium tartrate and 20 mL of 2 N NaOH to a final volume of 100 mL in distilled water) was added. Closed tubes were placed in a water bath (85-90° C.) for 10 min to develop color and cooled thereafter. 50 μL of reaction mixtures was diluted with 175 μL of distilled water in a 96-well microplate. α-Amylase activity was determined by measuring the absorbance of the mixture at 540 nm spectrophotometrically as above. Individual blanks were prepared to correct for the background absorbance due to test samples. In this case DNS solution was added in tubes before addition of substrate. The percentage inhibition of enzyme activity was calculated as above. All the tests were run in duplicate in this assay.

Take `Cc1sc2nc3c(c(N)c2c1C)CCC3` [BN-1, 2,3-dimethyl-6,7-dihydro-5H-cyclopenta[b]thieno[3,2-e]pyridin-4-amine]: in assay [1], the “Differential count (%) Eosinophils” value is 12%, the “Differential count (%) Lymphocytes” value turned out to be 65%, the “Differential count (%) Monocytes” value was 20% and the Total count was 12. Besides, in assay [2], the Maltose released is 2.20 mg/mL and the inhibition at 10000 µg/mL (stock) was -3.12%.

Consider `Cc1sc2nc3c(c(N)c2c1C)CCCCC3` [BN-4, 2,3-dimethyl-6,7,8,9-tetrahydro-5H-cyclohepta[b]thieno[3,2-e]pyridin-4-amine], for which, in assay [1], the “Differential count (%) Lymphocytes” value stood at 80%, the “Differential count (%) Monocytes” value is listed as 20% and the Total count came to 9. In addition, in assay [2], the Maltose released was 3.496 mg/mL and the inhibition at 10000 µg/mL (stock) was -2.01%.

Take `CC1CCc2c(nc3sc4c(c3c2N)CCCC4)C1` (stereo not drawn) [BN-7, 8-Methyl-1,2,3,4,7,8,9,10-octahydrobenzo[4,5]thieno[2,3-b]quinolin-11-amine]: in assay [1], the “Differential count (%) Eosinophils” value amounted to 20%, the “Differential count (%) Lymphocytes” value was 70%, the “Differential count (%) Monocytes” value is given as 10% and the Total count is 7. In addition, in assay [2], the Maltose released turned out to be 2.163 mg/mL and the inhibition at 10000 µg/mL (stock) was -0.765%.

For `Nc1c2c(nc3sc4c(c13)CCCC4)CCCCC2` [BN-8, 2,3,4,7,8,9,10,11-Octahydro-1H-benzo[4,5]thieno[2,3-b]cyclohepta [e]pyridin-12-amine], in assay [1], the “Differential count (%) Eosinophils” value worked out at 20%, the “Differential count (%) Lymphocytes” value came to 70%, the “Differential count (%) Monocytes” value stood at 10% and the Total count is recorded as 14. In addition, in assay [2], the “Alpha amylase inhibitory activity (in words)” value is recorded as “strong inhibitory activity” and the Maltose released worked out at 0.913 mg/mL.

Turning to `Nc1c2c(nc3sc4c(c13)CCC4)CCCCC2` [BN-16, 1,2,3,6,7,8,9,10-Octahydrocyclohepta[b]cyclopenta[4,5]thieno[3,2-e]pyridine-11-amine], in assay [1], the “Differential count (%) Eosinophils” value turned out to be 12%, the “Differential count (%) Lymphocytes” value was determined as 90%, the “Differential count (%) Monocytes” value is on record as 15% and the Total count turned out to be 8. For the same compound, in assay [2], the “Alpha amylase inhibitory activity (in words)” value is on record as “mild inhibition”, the Maltose released stood at 1.492 mg/mL and the inhibition at 10000 µg/mL (stock) was 31.5%.

The values are drawn from patent publication US20110269790A1, “NOVEL THIENOPYRIDINES AS PHARMACOLOGICALLY ACTIVE AGENTS” (priority 2009, published 2011).
